Measured values published in PubChem BioAssay AID248 (DTP/NCI, 2004).
Inconclusive results and toxic doses are left out. Cut-off read from the data, not from the text of the source: active = T/C of 150% or more; inactive = T/C below 125%.

System: L1210 leukemia ip in BDF1 mice, survival T/C
Experiment: NCI In Vivo Anticancer Drug Screen. Data for tumor model L1210 Leukemia (intraperitoneal) in B6D2F1 (BDF1) mice
Details: endpoint: mean survival time, higher = longer survival
Summary of the method: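 Mice bearing the transplanted tumor received compound or vehicle. Survival of the treated group was divided by that of the vehicle-treated control group to give the ratio.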

[1] = dose: 100.0 mg/kg/injection, schedule: Q01DX001 (ip), vehicle: saline
[2] = dose: 200.0 mg/kg/injection, schedule: Q01DX001 (ip), vehicle: saline
[3] = dose: 400.0 mg/kg/injection, schedule: Q01DX001 (ip), vehicle: saline

Measured: T/C

O=C(CCCC(=O)N/N=C/c1c(O)ccc2ccccc12)N/N=C/c1c(O)ccc2ccccc12
inactive: dose: 50.0 mg/kg/injection, schedule: Q01DX001 (ip), vehicle: saline 96 % of control | [1] 96 % of control | [2] 96 % of control | [3] 93 % of control

COc1cc2c(cc1OC)C(CCC(=O)O)=NCC2
inactive: dose: 12.5 mg/kg/injection, schedule: Q04DX002 (ip), vehicle: saline 101 % of control | dose: 25.0 mg/kg/injection, schedule: Q04DX002 (ip), vehicle: saline 104 % of control | dose: 50.0 mg/kg/injection, schedule: Q04DX002 (ip), vehicle: saline 90 % of control

COc1ccc(-c2c(C)nc(N)nc2OC)cc1
inactive: dose: 100.0 mg/kg/injection, schedule: Q04DX002 (ip), vehicle: saline with Tween-80 96 % of control | dose: 200.0 mg/kg/injection, schedule: Q04DX002 (ip), vehicle: saline with Tween-80 100 % of control | dose: 400.0 mg/kg/injection, schedule: Q04DX002 (ip), vehicle: saline with Tween-80 96 % of control

Cc1ccccc1N=Nc1c(O)n(-c2ccccc2Cl)c(=S)n(-c2ccccc2)c1=O
inactive: dose: 50.0 mg/kg/injection, schedule: Q01DX001 (ip), vehicle: Klucel (hydroxypropylcellulose) (HPC) 98 % of control | dose: 100.0 mg/kg/injection, schedule: Q01DX001 (ip), vehicle: Klucel (hydroxypropylcellulose) (HPC) 100 % of control | dose: 200.0 mg/kg/injection, schedule: Q01DX001 (ip), vehicle: Klucel (hydroxypropylcellulose) (HPC) 96 % of control

Fc1ccc(NC(=S)Nc2cc(Cl)cc(Cl)c2)cc1
inactive: dose: 7.5 mg/kg/injection, schedule: Q01DX Z (ip), vehicle: carboxymethylcellulose (CMC) 96 % of control | dose: 15.0 mg/kg/injection, schedule: Q01DX Z (ip), vehicle: carboxymethylcellulose (CMC) 93 % of control | dose: 30.0 mg/kg/injection, schedule: Q01DX Z (ip), vehicle: carboxymethylcellulose (CMC) 100 % of control | dose: 50.0 mg/kg/injection, schedule: Q01DX001 (ip), vehicle: carboxymethylcellulose (CMC) 98 % of control | dose: 60.0 mg/kg/injection, schedule: Q01DX Z (ip), vehicle: carboxymethylcellulose (CMC) 87 % of control | dose: 75.0 mg/kg/injection, schedule: Q01DX Z (ip), vehicle: carboxymethylcellulose (CMC) 87 % of control | dose: 100.0 mg/kg/injection, schedule: Q01DX001 (ip), vehicle: carboxymethylcellulose (CMC) 93 % of control | dose: 200.0 mg/kg/injection, schedule: Q01DX001 (ip), vehicle: carboxymethylcellulose (CMC) 95 % of control

c1cc2nnc3cccc4nnc(c1)c2c34
inactive: [1] 102 % of control | [2] 107 % of control | [3] 103 % of control

Brc1ccccc1C=C1c2ccccc2-c2ccccc21
inactive: dose: 100.0 mg/kg/injection, schedule: Q04DX003 (ip), vehicle: saline with Tween-80 102 % of control | dose: 200.0 mg/kg/injection, schedule: Q04DX003 (ip), vehicle: saline with Tween-80 101 % of control | dose: 400.0 mg/kg/injection, schedule: Q04DX003 (ip), vehicle: saline with Tween-80 96 % of control

CCCCCCCCCCCCCCCCCCCCCCCCC
inactive: dose: 100.0 mg/kg/injection, schedule: Q04DX003 (ip), vehicle: Klucel (hydroxypropylcellulose) (HPC) 91 % of control | dose: 200.0 mg/kg/injection, schedule: Q04DX003 (ip), vehicle: Klucel (hydroxypropylcellulose) (HPC) 89 % of control | dose: 400.0 mg/kg/injection, schedule: Q04DX003 (ip), vehicle: Klucel (hydroxypropylcellulose) (HPC) 87 % of control

NS(=O)(=O)CS(N)(=O)=O
inactive: [1] 100 % of control | [2] 96 % of control | [3] 96 % of control
